Data reported in patent US12359169B2, “Universal CAR-T cell and preparation method and use thereof” (SHANGHAI LONGYAO BIOTECHNOLOGY INC., LTD., priority 2018, dated 2025).

How the values were obtained:
U-CAR-T cells = experiment: Regulation of U-CAR-T survival by ganciclovir in vitro; format: cell-based, human; conditions: ganciclovir 0-3 μg/mL, 48 hours, anti-CD20 and anti-CD19 U-CAR-T, FIG. 4A
Description: The anti-CD20 U-CAR-T cells obtained in Example 1, anti-CD19 U-CAR-T cells (prepared according to the method in Example 1) and the control CAR-T (without knockout of CD3) were inoculated into 96-well plates, and the number of surviving CAR-Ts was compared after 48 hours by adding the indicated concentration of ganciclovir (0, 0.1 μg/mL, 0.3 μg/mL, 1 μg/mL, 3 μg/mL), and the results are shown in FIG. 4A.

CD3^−20uCAR-T cells = experiment: Regulation of U-CAR-T survival by ganciclovir in vivo (Raji xenograft); conditions: NSG mice with Raji, FIG. 4C
Description: NSG mice (n=6/group) were injected intravenously with 5×10^5 Raji, which was followed by the administration of 1×10^7 CD3^−20uCAR-T cells on day 7 or two hundred micrograms of Ganciclovir were administered on day 7, 10 and 13. 7 days after the treatment, bone marrow, spleen and peripheral blood were collected for analysis of CAR-T cell (mCD45^−hCD45^+hCD3^+) persistence and Raji (mCD45^−hCD45^+hCD19^+) tumor cell burden (FIG. 4C). Statistical significance was determined by Mann-Whitney U test and presented by *P<0.05, **P<0.01, ***P<0.001; NS: Not Significant. Statistical significance was determined by unpaired t test. Statistical significance was presented by *P<0.05, ***P<0.001.

CD3 gene = experiment: sgRNA knockdown efficiency assay (transient transfection, flow detection with anti-TCR antibody); format: cell-based, human; conditions: Jurkat cells, 0.6 μg pLenti-CrisprV2 plasmid, harvested at 48 h, FIG. 1F
Description: 2×10^5 Jurkat cells were transiently transfected with 0.6 μg pLenti-CrisprV2-hCD3E1/E2/D1/D2/Z1/Z2/G1/G2/G3 plasmids and cells were harvested at 48 h. Anti-TCR antibody was used for flow detection and untransfected plasmids were used as negative control.
The box in the figure represented the knockdown efficiency, where Z1 has the highest knockdown efficiency (about 81.2%).

Nc1nc(O)c2ncn(COC(CO)CO)c2n1 [ganciclovir]
number of surviving CAR-Ts (survival of U-CAR-T) (U-CAR-T cells): can regulate the survival of U-CAR-T
clearance of CD3− UCAR-T cells from organs (CD3^−20uCAR-T cells; 200 micrograms ganciclovir on day 7, 10 and 13, bone marrow, spleen, peripheral blood): effectively cleared
tumor load (CD3^−20uCAR-T cells; CD3− UCAR-T plus ganciclovir, compared to CD3+ CAR-T): elevated tumor load

Z1: sgRNA for knockout of CD3 zeta, SEQ ID NO: 8, GTGGAAGGCGCTTTTCACCG (listed as DNA, chemistry not given here)
knockdown efficiency (CD3 gene): about 81.2%
